Reference: patent US20240207265A1, “TREATMENT OF CNS DISEASES WITH sGC STIMULATORS” (Tisento Therapeutics Inc., priority 2021, published 2024)

Legend:
[1] = Non-human primate CSF pharmacokinetics (Study B), cisterna magna versus lumbar sampling; assay type: in vivo, cynomolgus monkeys
Method: The objective of this study was to investigate the pharmacokinetics of Compound I-14 after administration of a single […] bolus or oral gavage dose to cynomolgus monkeys on Day 1 and to evaluate differences in pharmacokinetic values when comparing CSF collected at the cisterna magna (as in Example 10A) versus lumbar locations.
Single doses of Compound I-14 were administered intravenously as a bolus injection of a solution at 0.15 mg/kg and orally by gavage as a suspension at 0.5 mg/kg to a group of four female cynomolgus monkeys in a crossover design. Plasma samples were collected at 0.25 (15 min), 0.5 (30 min), 1, 2, 3, 6, 8, 12, 24, 32, and 48 h following the IV and PO doses. CSF samples were collected at 3 and 24 h for all animals from the cisterna magna in groups 1 and 2 and the lumbar from groups 3 and 4. Sample extracts were prepared by protein precipitation and Compound I-14 concentrations were measured using LC-MS/MS. Pharmacokinetic parameters were calculated.

[2] = test system: MPTP-induced cognitive deficits; assay: Chronic low dose MPTP-lesioned macaque model of cognitive deficits in Parkinson's disease; assay type: in vivo, cynomolgus macaques; conditions: 3.0 mg/kg oral daily monotherapy
From the text: This study was a non-GLP study in the chronic low dose MPTP-lesioned macaque model of Parkinson's disease. This model has been described in the literature (https://www.ncbi.nlm.nih.gov/pmc/articles/PMC3282499/). The study was designed to assess effects of Compound I-14, administered as monotherapy, on performance of the following cognitive tasks: variable delayed response (VDR), continuous performance (CPT), visual discrimination reversal learning (SDR) and object retrieval (OR). The study was conducted in animals that had received prior treatment with low doses of MPTP and were known to have difficulties in the performance of the above-mentioned tasks. These studies utilised four male cynomolgus macaques with MPTP-induced cognitive deficits. The study had 4 parts. The first part of the study was to collect baseline data from the four animals on the four tasks to be studied. The second part of the study was to administer vehicle (sterile, filtered distilled water) over a 16 day period and collect vehicle data on the four tasks once per week for two weeks. In the third part of the study, Compound I-14 was administered orally daily for five days and then data were collected on the four tasks once per week for two weeks, with continued daily administration of Compound I-14 (3.0 mg/kg) 2 hrs. prior to each days testing. In the final part of the study, there was a 9 day washout period and then data were collected on the four tasks once per week for two weeks. One dose of Compound I-14 was assessed as monotherapy (3.0 mg/kg) following five days of pre-dosing and daily dosing for two weeks. The effects of the treatment on cognitive performance was assessed 2 hrs. after daily drug administration and during drug washout. MPTP-HCl was administered by i.v. injection at doses ranging from 0.05 mg/kg to 0.30 mg/kg, 2 to 3 times per week for several months. MPTP administration continued until cognitive deficits appeared with minimal/mild parkinsonian motor impairment. Animals were considered “cognitively impaired” if they show at least a 15% decrease in cognitive task performance from pre-MPTP baseline levels. Because response to MPTP is somewhat idiosyncratic, MPTP was administered to effect (i.e., development of cognitive deficits and then development of motor deficits), rather than given for a particular duration of exposure or a particular cumulative dose of MPTP. […] The measure recorded for each session is: 1) total number of trials needed to learn the initial discrimination (i.e. reach the specified criterion of 14/16 correct, and; 2) total number of trials needed to learn (i.e., reach the same criterion as mentioned above) the reversal in which the previously negative (unrewarded) stimulus is now the positive (rewarded) stimulus (i.e., reach criterion). […]

**Q.** For Cc1cc(F)c(Cc2nc(-c3ncc(F)c(O)n3)cn3ccnc23)cc1F [Compound I-14, 5-fluoro-2-(8-(2,5-difluoro-4-methylbenzyl)imidazo[1,2-a]pyrazin-6-yl)pyrimidin-4-ol], which “geomean ratio of CSF concentration to unbound concentration in plasma” value ([1]; 3 hours, IV dosing, cisterna magna sampling) is on record?
**A.** Its value is “C (2<Kp,uu≤3=C)”.

**Q.** What about the “geomean ratio of CSF concentration to unbound concentration in plasma” value ([1]; 3 hours, IV dosing, lumbar sampling) of the same compound?
**A.** The value was “C (2<Kp,uu≤3=C)”.

**Q.** What about the “geomean ratio of CSF concentration to unbound concentration in plasma” value ([1]; 3 hours, oral dosing, cisterna magna sampling) of the same compound?
**A.** The value was “C (2<Kp,uu≤3=C)”.

**Q.** What about the “geomean ratio of CSF concentration to unbound concentration in plasma” value ([1]; 3 hours, oral dosing, lumbar sampling) of the same compound?
**A.** The value was “C (2<Kp,uu≤3=C)”.

**Q.** And the “geomean ratio of CSF concentration to unbound concentration in plasma” value ([1]; 24 hours, IV dosing, cisterna magna sampling)?
**A.** The value was “B (1<Kp,uu≤2=B)”.

**Q.** And the “geomean ratio of CSF concentration to unbound concentration in plasma” value ([1]; 24 hours, IV dosing, lumbar sampling)?
**A.** Its value is “B (1<Kp,uu≤2=B)”.

**Q.** And the “geomean ratio of CSF concentration to unbound concentration in plasma” value ([1]; 24 hours, oral dosing, cisterna magna sampling)?
**A.** Its value is “C (2<Kp,uu≤3=C)”.

**Q.** What about the “geomean ratio of CSF concentration to unbound concentration in plasma” value ([1]; 24 hours, oral dosing, lumbar sampling) of the same compound?
**A.** The value was “C (2<Kp,uu≤3=C)”.

**Q.** And the Simple discrimination performance [2]?
**A.** The Simple discrimination performance was “not significantly changed”.

**Q.** What about the “number of trials needed to reach criterion to learn the discrimination reversal” value [2] of the same compound?
**A.** The value was “significantly reduced”.

**Q.** What about the “animals failing to learn the discrimination reversal” value ([2]; four animals) of the same compound?
**A.** The value was “none of the animals failed to learn the reversal”.

**Q.** And the “SDR (discrimination reversal) performance” value ([2]; tested 2 hrs after dosing)?
**A.** The value was “significantly improved performance”.
